# Test results from patent US20150118293A1, “NOVEL DELIVERY SYSTEM FOR ANTICANCER DRUG BASED ON SHORT-CHAIN- LENGTH POLYHYDROXYALKANOATE NANOPARTICLES” (priority 2013, published 2015).
# Tests used:
# [1] = test system: cancer cells line A549; test: in vitro cytotoxicity, MTT viability assay; assay type: cell-based; details: free EPT, concentration not given
# Experimental: The cellular toxicity of blank and EPT loaded scl-PHA nanoparticles as prepared in Example 2 were determined by using cancer cells line A549. The cells were cultured in Dulbecco's Modified Eagle's Medium (DMEM) containing 1% (v/v) Penicillin-Streptomycin (P/S, 10,000 U) antibiotic and 10% (v/v) Fetal Bovine Serum (FBS) and incubated for 24 h at 37° C. and 5% CO2. When cells grew to reach 95% confluence, they were detached from the cell culture flasks using trypsin-EDTA. The cell suspension was centrifuged at 900 rpm for 5 min and then resuspended in culture medium to get the final concentration of 1×10^5 cells/mL. About 200 μL of the cell suspensions were transferred to each well of a clear, flat bottom 96-well plate (Costar) and incubated for 24 h. On treatment day, medium was removed and fresh medium containing 4-fold serial dilutions i.e., 250.0 μg/mL (4 times), 62.5 μg/mL (8 times) and 1.6 μg/mL (12 times) of blank and EPT loaded scl-PHA nanoparticles was added. The toxicity of the nanoparticles was checked after 24, 48 and 72 h of treatment using 3-(4,5-dimethylthiazole-2-yl)-2,5-diphenyl tetrazolium (MTT) viability assay. About 5 mg of MTT was dissolved in 1 mL physiological buffer saline (PBS) solution, followed by 10 times dilution in culture medium. About 100 μL of MTT solution were added to each well after the removal of treatments and incubated for 4 h before the addition of 100 μl, of the solubilization solution (anhydrous isopropanol containing 0.1 N HCl and 10% Triton X-100). The plates were then incubated overnight and absorbance was taken at 570 nm on a microplate reader (BMG FLUOstar OPTIMA) and subtracted from the background signals at 690 nm. The cell % inhibition was calculated relative to wells containing only cell cultures without nanoparticles by using the following formula: […]
# [2] = neutral pH; cited from earlier work
smiles,measurement,setting,value
"Cc1c2ccncc2c(C)c2c1[nH]c1ccccc12 [EPT, 5,11-dimethyl-6H-pyrido[4,3-b]carbazole]",Relative % inhibition for A549 cells,[1]; 24 h,10.02 ± 0.86%
same,Relative % inhibition for A549 cells,[1]; 48 h,25.40 ± 1.35%
same,Relative % inhibition for A549 cells,[1]; 72 h,32.38%
same,water solubility,[2],approximately 0.62 mM
